These results are taken from patent US11858905B1, “Cathepsin L inhibitors” (priority 2023, dated 2024).

One assay has as its target human CatL (Homo sapiens (Human), UniProt P07711). As to the kind of experiment: Human Cathepsin L (CatL) enzymatic assay. In kind it is biochemical. The protocol: Human Cathepsin L (CatL) Enzymatic Assay
60 μL of the compounds were added to 384-well dilution plate. The compound solution was diluted for 1:3 in succession in DMSO for each column for 10 pts. 0.05 μL diluted compound solution was added in each row to 384 assay plates (Corning 4514) using Echo (LABCYTE 655), each column containing 2 replicates. 5 μL working solution of human CatL enzyme (Abcam #ab81780) was added to 384-well assay plate, centrifuge 1000 rpm for 1 min. The mixture was incubated at […] for 15 min, then add 5 μL working solution of CatL substrate (Genscript #C7360HB140_5) to initiate the reaction (CatL: 0.05 nM, Substrate: 500 nM). Incubate at […] for 30 min. Reading Ex370 nm and Em460 nm fluorescence signals with BMG CLARIO Star Plusaucu. Percent inhibition for each compound was calculated and IC50 (half maximal inhibitory concentration) was fitted from non-linear regression by XLfit 5.5.0.

In a further assay the test system is SARS-CoV-2 PsVs. In words: microbe, parasite or virus in culture. In kind it is cell-based. The settings on record: for activity at 0.5 µM / activity at 5 µM: Severe acute respiratory syndrome coronavirus 2, Vero C1008, 24 h; for activity at 0.5 µM: read-out: % Infection rate at 500 nM; for activity at 5 µM: read-out: % Infection rate at 5 uM.
Setting [1] is: CatL 0.05 nM, substrate 500 nM, pH 5.5, read-out: Enzymatic inhibition IC50.
[2] abbreviates: summary of Table 2, read-out: IC50 for inhibiting CatL.

Read-outs that look alike come from different tables or passages of the source.

Chain of human CatL (P07711 whole entry, looked up): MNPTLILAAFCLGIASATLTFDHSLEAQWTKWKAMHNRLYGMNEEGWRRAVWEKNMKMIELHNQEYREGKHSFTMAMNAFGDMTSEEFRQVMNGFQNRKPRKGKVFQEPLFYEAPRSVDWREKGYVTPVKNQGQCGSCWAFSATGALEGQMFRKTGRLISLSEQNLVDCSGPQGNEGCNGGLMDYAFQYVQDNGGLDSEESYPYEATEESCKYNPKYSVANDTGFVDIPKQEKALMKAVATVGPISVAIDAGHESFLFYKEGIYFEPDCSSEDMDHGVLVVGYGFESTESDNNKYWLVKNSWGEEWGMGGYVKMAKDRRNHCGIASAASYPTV

In the case of `N#CC1(NC(=O)[C@H](Cc2nc3ccc(F)cc3o2)NC(=O)c2cccc(Cl)c2)CC1` [Compound 4, (S)-3-chloro-N-(1-((1-cyanocyclopropyl)amino)-3-(6-fluorobenzo[d]oxazol-2-yl)-1-oxopropan-2-yl)benzamide], at human CatL (setting [1]), the IC50 was 34.9 nM. In the assay with SARS-CoV-2 PsVs, the activity at 0.5 µM came to 81% and the activity at 5 µM amounted to 51%.
As for `Cc1cccc(-c2ccc3nc(C[C@H](NC(=O)c4cc(C5(C)CC5)nn4C4CC4)C(=O)NC4(C#N)CC4)oc3c2)n1` [Compound 44, (S)—N-(1-((1-cyanocyclopropyl)amino)-3-(6-(6-methylpyridin-2-yl)benzo[d]oxazol-2-yl)-1-oxopropan-2-yl)-1-cyclopropyl-3-(1-methylcyclopropyl)-1H-pyrazole-5-carboxamide], the IC50 was 16.5 nM at human CatL (setting [1]) and less than 50 nM at human CatL (setting [2]). Moreover, in the assay with SARS-CoV-2 PsVs, the activity at 0.5 µM was determined as 82%. Besides, the activity at 5 µM with SARS-CoV-2 PsVs worked out at 55.5%.
As to `CN(C)c1ccc(-c2ccc3nc(C[C@H](NC(=O)c4cc(C5(C)CC5)nn4C4CC4)C(=O)NC4(C#N)CC4)oc3c2)cn1` [Compound 39, (2S)—N-(1-cyanocyclopropyl)-2-{[2-cyclopropyl-5-(1-methylcyclopropyl)pyrazol-3-yl]formamido}-3-{6-[6-(dimethylamino)pyridin-3-yl]-1,3-benzoxazol-2-yl}propanamide], at human CatL (setting [1]), the IC50 came out at 1.6 nM. Besides, in the assay with SARS-CoV-2 PsVs, the activity at 0.5 µM amounted to 32% and the activity at 5 µM worked out at 4%.
For `Cc1cc(-c2ccc3nc(C[C@H](NC(=O)c4cc(C5(C)CC5)nn4C4CC4)C(=O)NCC#N)oc3c2)ccn1` [Compound 35, (S)—N-(1-((cyanomethyl)amino)-3-(6-(2-methylpyridin-4-yl)benzo[d]oxazol-2-yl)-1-oxopropan-2-yl)-1-cyclopropyl-3-(1-methylcyclopropyl)-1H-pyrazole-5-carboxamide], the IC50 on human CatL (setting [1]) is 1.1 nM. In the assay with SARS-CoV-2 PsVs, the activity at 0.5 µM is 40% and the activity at 5 µM amounted to 3.1%.
Turning to `CC(C)(C)c1cc(C(=O)N[C@@H](Cc2nc3ccc(C4=CCN(CC(F)F)CC4)cc3o2)C(=O)NC2(C#N)CC2)n(C2CC2)n1` [Compound 29, (S)-3-(tert-butyl)-N-(1-((1-cyanocyclopropyl)amino)-3-(6-(1-(2,2-difluoroethyl)-1,2,3,6-tetrahydropyridin-4-yl)benzo[d]oxazol-2-yl)-1-oxopropan-2-yl)-1-cyclopropyl-1 H-pyrazole-5-carboxamide], the IC50 on human CatL (setting [1]) is 1.3 nM. The IC50 on human CatL (setting [2]) is less than 10 nM. In the assay on SARS-CoV-2 PsVs, the “protection of cells from pseudovirus infection at 500 nM” value was “nearly full protection”, the activity at 0.5 µM was determined as 7.3% and the activity at 5 µM stood at 8.8%.
In the case of `Cc1cc(-c2ccc3nc(C[C@H](NS(=O)(=O)c4cccc(Cl)c4)C(=O)NCC#N)oc3c2)ccn1` [Compound 37, (S)-2-((3-chlorophenyl)sulfonamido)-N-(cyanomethyl)-3-(6-(2-methylpyridin-4-yl)benzo[d]oxazol-2-yl)propanamide], the IC50 on human CatL (setting [1]) was found to be 125 nM. In addition, in the assay on SARS-CoV-2 PsVs, the activity at 0.5 µM worked out at 96% and the activity at 5 µM was 104%.
Take `N#CC1(NC(=O)[C@H](Cc2nc3ccccc3o2)NC(=O)c2cn(C3CC3)nc2C(F)F)CC1` [Compound 19, (S)—N-(3-(benzo[d]oxazol-2-yl)-1-((1-cyanocyclopropyl)amino)-1-oxopropan-2-yl)-1-cyclopropyl-3-(difluoromethyl)-1 H-pyrazole-4-carboxamide]: the IC50 at human CatL (setting [1]) stood at 44.6 nM. In the assay with SARS-CoV-2 PsVs, the activity at 0.5 µM turned out to be 101% and the activity at 5 µM came out at 77.3%.
`COCCN1CC=C(c2ccc3nc(C[C@H](NC(=O)c4cc(C5(C)CC5)nn4C4CC4)C(=O)NC4(C#N)CC4)oc3c2)CC1` [Compound 46, (2S)—N-(1-cyanocyclopropyl)-2-{[2-cyclopropyl-5-(1-methylcyclopropyl)pyrazol-3-yl]formamido}-3-{6-[1-(2-methoxyethyl)-3,6-dihydro-2H-pyridin-4-yl]-1,3-benzoxazol-2-yl}propanamide]: the IC50 at human CatL (setting [1]) stood at 1 nM. In the assay on SARS-CoV-2 PsVs, the “protection of cells from pseudovirus infection at 500 nM” value was “nearly full protection”, the activity at 0.5 µM amounted to 7% and the activity at 5 µM was found to be 0.08%.
For the compound `CC(C)(C)c1cc(C(=O)N[C@@H](Cc2nc3cc(F)cc(Cl)c3o2)C(=O)NC2(C#N)CC2)n(C2COC2)n1` [Compound 22, (S)-3-(tert-butyl)-N-(3-(7-chloro-5-fluorobenzo[d]oxazol-2-yl)-1-((1-cyanocyclopropyl)amino)-1-oxopropan-2-yl)-1-(oxetan-3-yl)-1H-pyrazole-5-carboxamide], the concentration for half-maximal inhibition (IC50) on human CatL (setting [1]) amounted to 5.3 nM. Besides, in the assay with SARS-CoV-2 PsVs, the activity at 0.5 µM was found to be 33% and the activity at 5 µM is 13%.
For the compound `CC(C)(C)c1cc(C(=O)N[C@@H](Cc2nc3cccc(Cl)c3o2)C(=O)NC2(C#N)CC2)n(C2CC2)n1` [Compound 20, (S)-3-(tert-butyl)-N-(3-(7-chlorobenzo[d]oxazol-2-yl)-1-((1-cyanocyclopropyl)amino)-1-oxopropan-2-yl)-1-cyclopropyl-1H-pyrazole-5-carboxamide], the IC50 at human CatL (setting [1]) stood at 4.2 nM. Further, in the assay with SARS-CoV-2 PsVs, the activity at 0.5 µM is 40% and the activity at 5 µM is 6.3%.
`CN1CCN(c2ccc3nc(C[C@H](NC(=O)c4cc(C5CC5)nn4C4CC4)C(=O)NCC#N)oc3c2)CC1` [Compound 25, (S)—N-(1-((cyanomethyl)amino)-3-(6-(4-methylpiperazin-1-yl)benzo[d]oxazol-2-yl)-1-oxopropan-2-yl)-1,3-dicyclopropyl-1 H-pyrazole-5-carboxamide]: the IC50 on human CatL (setting [1]) was determined as 36.7 nM. In the assay with SARS-CoV-2 PsVs, the activity at 0.5 µM amounted to 54% and the activity at 5 µM is 15%.
Consider `N#Cc1cccc2nc(C[C@H](NC(=O)c3cccc(Cl)c3)C(=O)NC3(C#N)CC3)oc12` [Compound 5, (S)-3-chloro-N-(3-(7-cyanobenzo[d]oxazol-2-yl)-1-((1-cyanocyclopropyl)amino)-1-oxopropan-2-yl)benzamide], for which the IC50 on human CatL (setting [1]) amounted to 122 nM. In the assay with SARS-CoV-2 PsVs, the activity at 0.5 µM was 91% and the activity at 5 µM was 81%.
Turning to `CN1CCN(c2ccc3nc(C[C@H](NC(=O)c4cccc(Cl)c4)C(=O)NC4(C#N)CC4)oc3c2)CC1` [Compound 24, (S)-3-chloro-N-(1-((1-cyanocyclopropyl)amino)-3-(6-(4-methylpiperazin-1-yl)benzo[d]oxazol-2-yl)-1-oxopropan-2-yl)benzamide], at human CatL (setting [1]), the IC50 is 9.7 nM. The IC50 at human CatL (setting [2]) is less than 10 nM. For the same compound, in the assay with SARS-CoV-2 PsVs, the activity at 0.5 µM is 34% and the activity at 5 µM is 2%.
`CN1CCN(c2ccc3nc(C[C@H](NC(=O)c4cc(C(C)(C)C)nn4C4CC4)C(=O)NC4(C#N)CC4)oc3c2)CC1` [Compound 26, (S)-3-(tert-butyl)-N-(1-((1-cyanocyclopropyl)amino)-3-(6-(4-methylpiperazin-1-yl)benzo[d]oxazol-2-yl)-1-oxopropan-2-yl)-1-cyclopropyl-1 H-pyrazole-5-carboxamide]: the IC50 was 1.4 nM at human CatL (setting [1]) and less than 10 nM at human CatL (setting [2]). Further, the activity at 0.5 µM with SARS-CoV-2 PsVs is 25%. In the assay with SARS-CoV-2 PsVs, the activity at 5 µM was determined as 2.2%.

The term IC50 denotes the concentration that inhibits the measured activity by half.
